Measurements taken from US20220331303A1, “USE OF AN OREXIN 2 RECEPTOR AGONIST FOR THE TREATMENT OF EXCESSIVE SLEEPINESS” (Takeda Pharmaceutical Company Limited, priority 2019, published 2022).
Where two headings read alike, the source gives them in different places.

Assay: Single-dose plasma PK of Compound A in subjects with OSA
Assay type: in vivo, human
Conditions: for half-life: read-out: t½, z (converted)
Experimental: The treatment periods began on Day 1 of Treatment Period 1 (Study Day 1) with Treatment Periods 2 and 3 commencing on Study Days 3 and 5, respectively. In the morning of Day 1 of Treatment Period 1, eligible subjects were randomized to 1 of the 6 sequence groups as listed in Table 36. After randomization, the subject was dosed in 3 treatment periods according to the order defined by the sequence group to which he/she was randomized. On Day 1 of each treatment period, Compound A or placebo was administered as a single 9-hour IV infusion commencing at approximately 08:00. The infusion was terminated at approximately 17:00. On Day 1 of each treatment period, four 40-minute maintenance of wakefulness test (MWT) sessions was performed at 2, 4, 6, and 8 hours after the start of the infusion. Subjects were required to stay awake in between the MWT sessions.
On Day 1 of Treatment Period 1, all eligible subjects were randomized and received the first dose of study drug. Compound A or placebo was administered as a single 9-hour IV infusion commencing at approximately 08:00. On each dosing day (Study Days 1, 3, and 5), 40-minute MWT sessions were performed at 2, 4, 6, and 8 hours after the start of the infusion. There was a minimum 24-hour washout interval between the end of the infusion and the commencement of treatment in subsequent treatment periods to allow for complete elimination of the preceding treatment effect. The KSS and PVT were collected per the Schedule of Study Procedures. Blood samples for determination of Compound A plasma concentrations were collected predose and at specified time points postdose, Safety assessments were recorded. During the study, AEs were recorded, clinical laboratory tests, vital signs, and safety ECGs were obtained. Study Days 2, 4, and 6 were washout days. Subjects were discharged from the unit following completion of study exit procedures in the afternoon of Study Day 6 (Day 2 of Treatment Period 3). Subjects were contacted by telephone approximately 7 days (±2 days) following unit discharge for a safety check.
Blood samples used for PK analysis of Compound A was collected according to Table 38.

[1] = human, intravenous, 44 mg single dose, subjects with OSA, plasma, mean (PK set)
[2] = human, intravenous, 112 mg single dose, subjects with OSA, plasma, mean (PK set)

COC(=O)N1CCC[C@H](NS(C)(=O)=O)[C@@H]1CO[C@H]1CC[C@@H](c2ccccc2)CC1 [Compound A, methyl (2R,3S)-3-((methylsulfonyl)amino)-2-(((cis-4-phenylcyclohexyl)oxy)methyl)piperidine-1-carboxylate]
Plasma Concentration Mean (44 mg, 0 h After Start of Infusion): BLQ | Plasma Concentration Mean (44 mg, 0.17 h From End of Infusion): 53.69 ng/mL | Plasma Concentration Mean (44 mg, 1 h After Start of Infusion): 59.80 ng/mL | Plasma Concentration Mean (44 mg, 1 h From End of Infusion): 29.90 ng/mL | Plasma Concentration Mean (44 mg, 3 h After Start of Infusion): 92.43 ng/mL | Plasma Concentration Mean (44 mg, 4 h From End of Infusion): 15.22 ng/mL | Plasma Concentration Mean (44 mg, 5 h After Start of Infusion): 101.7 ng/mL | Plasma Concentration Mean (44 mg, 7 h After Start of Infusion): 86.37 ng/mL | Plasma Concentration Mean (44 mg, 9 h After Start of Infusion): 90.42 ng/mL | Plasma Concentration Mean (44 mg, 15 h From End of Infusion (24 hours from start of infusion)): 2.462 ng/mL | Ceoi (112 mg single dose, subjects with OSA, plasma, mean (PK set)): 211.6 ng/mL | Plasma Concentration Mean (112 mg, 0 h After Start of Infusion): BLQ | Plasma Concentration Mean (112 mg, 0.17 h From End of Infusion): 139.3 ng/mL | Plasma Concentration Mean (112 mg, 1 h After Start of Infusion): 162.9 ng/mL | Plasma Concentration Mean (112 mg, 1 h From End of Infusion): 77.87 ng/mL | Plasma Concentration Mean (112 mg, 3 h After Start of Infusion): 208.7 ng/mL | Plasma Concentration Mean (112 mg, 4 h From End of Infusion): 34.12 ng/mL | Plasma Concentration Mean (112 mg, 5 h After Start of Infusion): 222.3 ng/mL | Plasma Concentration Mean (112 mg, 7 h After Start of Infusion): 208.9 ng/mL | Plasma Concentration Mean (112 mg, 9 h After Start of Infusion): 211.6 ng/mL | Plasma Concentration Mean (112 mg, 15 h From End of Infusion (24 hours from start of infusion)): 5.962 ng/mL | AUC(0-inf) [1]: 899 ng·h/mL | AUC(0-t) [1]: 884 ng·h/mL | Cmax [1]: 102 ng/mL | clearance [1]: 860 mL/min | concentration at 9 h (human, intravenous, 44 mg single dose, subjects with OSA, plasma, mean (PK set), read-out: Ceoi): 90.4 ng/mL | half-life [1]: 3.79 h | AUC(0-inf) [2]: 2060 ng·h/mL | AUC(0-t) [2]: 2040 ng·h/mL | Cmax [2]: 230 ng/mL | clearance [2]: 954 mL/min | half-life [2]: 3.93 h | Vd (human, plasma, intravenous, 44 mg, 44 mg single dose, subjects with OSA, plasma, mean (PK set), read-out: Vss): 129 L | Vd (human, plasma, intravenous, 44 mg, 44 mg single dose, subjects with OSA, plasma, mean (PK set), read-out: Vz): 278 L | Vd (human, plasma, intravenous, 112 mg, 112 mg single dose, subjects with OSA, plasma, mean (PK set), read-out: Vss): 139 L | Vd (human, plasma, intravenous, 112 mg, 112 mg single dose, subjects with OSA, plasma, mean (PK set), read-out: Vz): 319 L
